From patent US12018307B2, “Process for producing a glucuronide and genetically modified microorganisms useful in this process” (UTAH STATE UNIVERSITY, priority 2021, dated 2024)
Values after ≈ are worked out from the molar mass of the structure shown. Read-outs that look alike come from different tables or passages of the source.

What was measured:
[1] = Determination of the water-solubility; format: physicochemical
Description: The purified product was tested for their water solubility as previously described (Wang et al. 2014). Purified 2′-hydroxyflavone glycoside was used to establish standard curves for quantifying water solubility. Briefly, the purified compound and the substrate were each mixed with 300 μL of distilled water in an Eppendorf tube at 25° C. An ultrasonic cleaner was used to facilitate the dissolution. After 30 min of sonication and centrifugation at 13,000×g for 10 min, supernatant of each sample was analyzed by HPLC to determine the compound concentrations in the solution. All samples were performed in triplicate and water solubility of each sample are expressed as the mean±standard deviation (SD).

[2] = tested on: human peripheral blood mononuclear cells; details: cited from earlier work

Compound: O=C(O)[C@H]1O[C@@H](Oc2ccccc2-c2cc(=O)c3ccccc3o2)[C@H](O)[C@@H](O)[C@@H]1O [hydroxyflavone-2′-O-β-D-glucuronide]
- water solubility ([1]; distilled water, 25° C., 30 min sonication, HPLC, n=3, mean±SD): 34.8 ± 0.9 µg/mL (≈ 84 µM)
- water solubility relative to the substrate 2′-hydroxyflavone ([1]; ratio glucuronide / substrate): around 14 times

Compound: O=C(O)[C@H]1O[C@@H](Oc2ccc(/C=C/c3cc(O)cc(O)c3)cc2)[C@H](O)[C@@H](O)[C@@H]1O [resveratrol-4′-O-β-D-glucuronide, Resveratrol-4′-O-β-D-glucuronide]
- cytotoxicity to human peripheral blood mononuclear cells ([2]; at 300 μM): did not show any cytotoxicity

Compound: Oc1ccc(C=Cc2cc(O)cc(O)c2)cc1 [resveratrol, reference compound]
- cytotoxicity to human peripheral blood mononuclear cells ([2]; at 30 μM): has cytotoxicity

Compound: O=c1cc(-c2ccccc2O)oc2ccccc12 [2′-hydroxyflavone, reference compound]
- solubility at 30 min ([1]; thermodynamic from solid, distilled water, 25° C., 30 min sonication, HPLC, n=3, mean±SD): 2.5 ± 0.7 µg/mL (≈ 10.5 µM)
